Earlier results on one compound are cited in patent US20190328710A1, “SYNERGISTIC COMPOSITION FOR INHIBITING ADVANCED GLYCATION END PRODUCT CROSSLINKING” (H2 Water Technologies Ltd., priority 2018, published 2019).

The test system of this data set is patients with cataracts. The settings on record: 96-patient trial, 6-month trial period.

SMILES strings stand for the structures.

With `NCCC(=O)N[C@@H](Cc1cnc[nH]1)C(=O)O` [L-Carnosine], the “success rate in advanced senile cataracts” value (advanced senile cataracts) is 80%. For the same compound, the “success rate in patients with mild to moderate cataracts” value (mild to moderate cataracts) was 100%.
